The text below walks through data of PubChem BioAssay AID624404 (Broad Institute, 2012).

Inconclusive results are not listed. Calls of active or inactive are those of the source.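 The calls were made as follows: active = luciferase signal rise whose fitted curve crosses a set activity limit at or below the top valid tested dose; inconclusive = flat fit with 30 to 70% rise, or poor fit; inactive = signal falling, flat within 30%, or crossing above top dose.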

The experiment concerns D54 LucT luciferase reporter counterscreen, luminescence, 24 h. Nature of the experiment: luciferase activators in glycosylation-insensitive reporter cells, dose response, counter-screen for N-linked glycosylation inhibitor project, D54 LucT cells, luminescence, cherry pick (AID 624404).
Turning to `O=C(C[C@@H]1C/C=C/CC[C@H](Cc2ccc(F)cc2)C(=O)OC[C@@H](Cc2ccccc2)NC1=O)N[C@H](CO)Cc1ccccc1`, the AC35 was 4640 nM.
For `Cc1ccnc(NC(=O)Nc2ccc3c(c2)N(C)C(=O)CS3)c1`, the AC35 is 8.68 nM.
The value for `Cc1cccn2c(=O)c3cc(C(=O)NC4CCCCC4)n(C)c3nc12` was 7540 nM.
Consider `COc1ccc2c(c1)[C@H]1[C@H](CO2)[C@H](c2ccccc2)[C@]2(C)C(=O)Nc3cc(F)c(F)cc3C(=O)N12`, for which the AC35 is 469 nM.
For `Cc1c(Cl)cccc1Nc1nc(N)nc(CN2CCc3ccccc3C2)n1`, the AC35 is 614 nM.
As to `COc1ccc(CCn2c(O)c(C=NCc3ccc4c(c3)OCO4)c(=O)[nH]c2=O)cc1OC`, the AC35 is 678 nM.
As to `COc1ccc(C2=NOC(C(=O)NCc3ccco3)C2)cc1` (stereo unspecified), the AC35 is 784 nM.
For `COc1cc2c(cc1OC)C(c1ccccc1)N(C(=O)c1ccccc1)CC2` (stereo unspecified), the AC35 was 321 nM.
Consider `Cn1c(=O)cc(OCCCC(=O)Nc2ccc3c(c2)OCCO3)c2ccccc21`, for which the AC35 is 353 nM.
For `Cc1ccc(S(=O)(=O)NC2=C(N3CCN(Cc4ccccc4)CC3)C(=O)c3ccccc3C2=O)cc1`, the AC35 was 2540 nM.
Regarding `O=C1N[C@H]2CC=C[C@H]2N(Cc2cccs2)c2ccccc21`, the AC35 was 199 nM.
The value for `Cc1ccc2nc(/C(C#N)=C/c3cn[nH]c3-c3ccc(F)cc3)[nH]c2c1` was 2180 nM; that for `COc1cc2c(cc1OC)CN(c1ccc(C(F)(F)F)cn1)CC2` was 2500 nM; that for `Cc1cccc(NC(=O)Nc2cccc(C#N)c2)n1` was 467 nM.
To `O=C(COC(=O)Cn1cnc2ccccc21)Nc1cccc2c1C(=O)c1ccccc1C2=O` belongs 459 nM; to `COc1ccc(S(=O)(=O)NCc2ccccn2)cc1NC(=O)c1ccccc1`, 834 nM.
To `O=C(c1ccccc1-c1ccccc1)N1CCN(c2ccccn2)CC1` belongs 2040 nM.
For `COc1cc(/C=C(/C(=O)c2cccs2)c2nc3ccccc3[nH]2)cc(OC)c1O`, the AC35 was 19.5 nM.
To `COc1ccccc1NC(=O)/C=C/c1ccc2c(c1)OCO2` belongs 190 nM.
`CCN(CC)c1ccc(/C=N/n2nnnc2N)c(O)c1`: the AC35 was 336 nM.
To `COc1cccc(Sc2ccccc2/C=N/NC(N)=O)c1` belongs 3390 nM; to `CC1c2cc3c(cc2CCN1C(=O)c1ccc(Br)cc1)OCCCO3` (stereo unspecified), 172 nM; to `Cc1ccc(-c2nc(NCCCN(C)C)c3ccccc3n2)cc1`, 3890 nM.
Take `COc1ccc(OC)c2nc3c(C(=O)NCCN(C)C)cccc3nc12`: the AC35 was 384 nM.
`C[C@@]12C(=O)Nc3cc(Cl)ccc3C(=O)N1[C@H]1c3cc(Br)ccc3OC[C@@H]1[C@@H]2c1ccccc1`: the AC35 was 2550 nM.
To `CC1CN(c2nc(-c3ccccc3)nnc2-c2ccccc2)CC(C)O1` (stereo unspecified) belongs 1390 nM; to `COc1ccc(CC(=O)N(Cc2ccccc2)c2ccc(C)cc2)cc1S(=O)(=O)N1CCOCC1`, 2500 nM; to `COc1ccc(NC(=O)C2Cc3c(-c4cccc(NC(C)=O)c4)ccnc3O2)cc1` (stereo unspecified), 18.9 nM.
For `COc1cc(/C=N/NC(=O)c2ccc(-c3ccccc3)cc2)cc(OC)c1OC`, the AC35 is 4600 nM.
The value for `c1ccc(CNc2nc(-c3ccccc3)nc3ccccc23)cc1` was 3010 nM; that for `Clc1ccc(CSc2cnnc3ccccc23)cc1Cl` was 2090 nM; that for `COc1ccc(OC)c(N(CC(=O)Nc2cccc3ccccc23)S(C)(=O)=O)c1` was 2420 nM.
The value for `COc1cc(/C=C/C(=O)OCC(=O)NCc2ccc(F)cc2)ccc1O` was 88.1 nM.
The value for `N#Cc1ccc(-c2cccs2)nc1SCc1cccnc1` was 848 nM; that for `COc1ccc2c(c1)OC[C@H]1[C@H]2N2C(=O)c3ccc(C)cc3NC(=O)[C@@]2(C)[C@H]1c1ccccc1` was 658 nM.
As for `COc1ccc(CNC(=O)C/C(C)=N/NC(=O)COc2ccc(C)cc2Br)cc1`, the AC35 is 3090 nM.
To `Cn1c(=O)n(C)c2cc(NS(=O)(=O)c3ccc(F)cc3)ccc21` belongs 1240 nM; to `COc1ccc(NC(=O)C2Cc3c(-c4cccc(C(C)=O)c4)ccnc3O2)cc1` (stereo unspecified), 90.9 nM; to `COc1ccccc1/C=C/C(=O)/C=C/c1ccccc1O`, 266 nM.
The value for `COc1ccc(/C=C/C(=O)c2ccccc2)cc1COc1ccccc1F` was > 19500 nM (inactive); that for `O=C(CCN1C(=O)/C(=C/c2cccs2)SC1=S)N1CCCCC1` was 4530 nM; that for `CNC(=O)c1cccc(NC(=O)c2ccccc2OCc2ccccc2)c1` was 454 nM.
As to `CCN1C(=O)c2cccc3c(S(=O)(=O)Nc4ccccc4OC)ccc1c23`, the AC35 is 896 nM.
To `COc1ccc(CCNC(=O)c2cc(-c3ccco3)on2)cc1OC` belongs 15000 nM; to `Cc1cc(=O)oc2cc(OCC(=O)N3c4ccccc4CC3C)ccc12` (stereo unspecified), 1370 nM; to `COc1cc(F)ccc1-c1csc(C(NC(C)=O)c2ccccc2)n1` (stereo unspecified), 243 nM.
Take `Nc1c2ccccc2nc2ccccc12`: the AC35 was 4900 nM.
Consider `CCOc1ccc2[nH]c(C(=O)N/N=C/c3cc(OC)c(OC)c(OC)c3)cc2c1`, for which the AC35 is 3270 nM.
Consider `Cc1ccc(C)c(Cn2nnc3c(=O)[nH]c(C4CCN(C(=O)c5ccco5)CC4)nc32)c1`, for which the AC35 is 852 nM.
To `COc1ccc(S(=O)(=O)N2CCCCC2)cc1NC(=O)c1[nH]c(C)c(C(C)=O)c1C` belongs 621 nM; to `COc1ccccc1-c1csc(C(NC(C)=O)c2ccc(F)c(F)c2)n1` (stereo unspecified), 420 nM; to `CC1(C(=O)NCCC(F)(F)F)Cc2c(-c3cccc(C(F)(F)F)c3)ccnc2O1` (stereo unspecified), > 19500 nM (inactive).
To `Cc1ccc(S/C=C\C(=O)c2ccccc2)cc1` belongs 135 nM.
The value for `CC(C)/C=C1\CC/C(=C\c2cccnc2)C1=O` was 9160 nM; that for `Oc1ccc(-c2csc(-c3c[nH]c4ccccc34)n2)c(O)c1` was 697 nM; that for `CC(C)c1ccc(OCc2ccc(C(=O)N3CCCC3)o2)cc1` was 850 nM.
In the case of `COc1ccc(S(=O)(=O)Nc2ccc3c(c2)n(C)c(=O)n3C)cc1OC`, the AC35 is 104 nM.
The value for `COc1ccc(C(=O)N2CCN(S(=O)(=O)c3ccc(C)cc3C)CC2)cc1S(=O)(=O)N1CCOCC1` was 4790 nM.
For `O=S(=O)([N-]c1nc2ccccc2nc1-n1cc[n+](Cc2ccccc2)c1)c1ccc(Br)cc1`, the AC35 is 57 nM.
To `COc1ccc(/C(C)=N/NC(=O)c2ccccc2OCc2ccccc2)c(OC)c1` belongs 56 nM; to `CC(=O)c1sc(Nc2cccc3ccccc23)nc1C`, 4070 nM.
To `CCOc1cc(C)nc(NCc2ccccc2)n1` belongs 5190 nM; to `Cc1ccc(CC(=O)NCc2ccc(F)cc2)cc1`, 4270 nM; to `Cc1ccc(C(=O)N/C(=C\c2cccs2)C(=O)NCCc2c[nH]c3ccccc23)cc1`, 1090 nM.
To `Cc1cccc([C@@H]2[C@@H]3C(=O)N(Cc4ccccc4)C(=O)[C@@H]3[C@]3(Cc4ccccc4)C(=O)N(c4cccc(F)c4)C(=O)N23)c1` belongs 4360 nM.
Consider `Cc1ccc(O)c(C(=O)C=Cc2ccccc2)c1`, for which the AC35 is 8.29 nM.
The value for `COc1ccccc1CCC(=O)Nc1ccc2c(c1)c(=O)n(C)n2-c1cccs1` was 2330 nM.
Regarding `CC(=O)NC(c1cccc(F)c1)c1nc(-c2ccccc2C)cs1` (stereo unspecified), the AC35 is 263 nM.
Consider `CCN(CC)c1ccc(/C=N/NC(=O)c2cnccn2)cc1`, for which the AC35 is 53.7 nM.
The value for `O=C(NCCCn1ccnc1)c1cc(-c2ccccc2)on1` was 1480 nM; that for `Cc1[nH]c2ccccc2c1/C=N/NC(=O)c1cc(-c2ccncc2)nc2ccccc12` was 2060 nM.
`CC(C)(C)c1ccc(OCc2ccc(C(=O)Nc3cccnc3)o2)cc1`: the AC35 is 519 nM.
The value for `COc1ccc(CC(=O)Nc2ccc(-c3ccc4nnc(C)n4n3)cc2)cc1OC` was 1800 nM.
In the case of `COc1ccc(CNC(=O)c2cccc3c(-c4cccc(C(N)=O)c4)coc23)cc1OC`, the AC35 was 408 nM.
As to `Cc1cnc(C(=O)Nc2ccc(OC(F)(F)F)cc2)cn1`, the AC35 is 3180 nM.
In the case of `Cc1cc2cc(CNC(=O)Cc3cccs3)ccc2n1C`, the AC35 was 13600 nM.
To `COc1cc(-c2cc3nc(NCCc4ccncc4)ccn3n2)cc(OC)c1OC` belongs 806 nM; to `CC(=O)Nc1cccc(-c2ccnc3c2CC(C)(C(=O)NCC2CC2)O3)c1` (stereo unspecified), 11500 nM.
The value for `O=C(Nc1c(Cl)ccc2nsnc12)c1ccc([N+](=O)[O-])o1` was 778 nM; that for `COc1cc(Nc2nc3c(N)cc(C(F)(F)F)cc3nc2-c2ccccc2)cc(OC)c1OC` was 3870 nM.
To `Cn1c(=O)n(C)c2cc(S(=O)(=O)N3CCCc4ccccc43)ccc21` belongs 10200 nM.
In the case of `CCc1ccc(C(=O)Nc2ccc3c(c2)n(C)c(=O)n3C)cc1`, the AC35 is 2630 nM.
To `O=C(N/N=C/c1ccc(F)cc1)c1sccc1OCc1ccc(F)cc1` belongs 1580 nM.
With `O=C(NC1CCCCC1)c1cccc2c1C(=O)c1ccc(-c3ccc(OC(F)(F)F)cc3)cc1S2(=O)=O`, the AC35 was 31.2 nM.
For the molecule `Cn1nc(-c2ccccc2)c(CSc2ccccc2Cl)c1Cl`, the AC35 is 1120 nM.
As to `NC(=O)CC(NC(=O)Cc1ccc(Br)cc1)c1ccc(NC2CCN(Cc3ccccc3)CC2)c([N+](=O)[O-])c1` (stereo unspecified), the AC35 is 983 nM.
To `CN1C(=O)CSc2ccc(NC(=O)Nc3ccccn3)cc21` belongs 828 nM.
Take `N#Cc1c(-c2ccc(F)cc2)c(-c2ccc(F)cc2)nn(CCO)c1=O`: the AC35 is 997 nM.
On to `CC(NC(=O)c1ccc2ccccc2n1)c1ccc(S(N)(=O)=O)cc1` (stereo unspecified), for which the AC35 is 977 nM.
As to `COc1ccc(CCn2c(=N)c(C(=O)NCC3CCCO3)cc3c(=O)n4cccc(C)c4nc32)cc1OC` (stereo unspecified), the AC35 was 154 nM.
`O=C(Nc1cccc(NC(=O)c2cccs2)c1)c1ccc([N+](=O)[O-])o1`: the AC35 is 1050 nM.
The value for `Cc1ccc(NC(=O)c2ccc(Cl)cc2[N+](=O)[O-])nc1` was 2420 nM; that for `Cc1ccc2c(c1)[C@H]1[C@H](CO2)[C@H](c2ccccc2)[C@]2(C)C(=O)Nc3ccc(Br)cc3C(=O)N12` was 1760 nM.
As for `C=CCn1c(O)c(/C=C2/C=CC=N2)c(=O)[nH]c1=O`, the AC35 is 14300 nM.
To `COc1ccc(Nc2cc(C)nc(-n3nc(C)cc3C)n2)cc1` belongs 150 nM.
To `OCC1OC(n2ccc3c(SCc4ccccc4)ncnc32)C(O)C1O` (stereo unspecified) belongs 148 nM.
